# Source: PMC6277198, “Molecular basis for activation of lecithin:cholesterol acyltransferase by a compound that increases HDL cholesterol” (eLife, 2018)
# Positions count from the first letter of the chain named. “Also recorded” adds a separate entry of the source.
# Experiments:
# [1] = target: T1, LCAT Y51S (Homo sapiens, UniProt P04180, Y75S); assay: MUP hydrolysis (esterase) assay; assay type: biochemical
# T1 construct: hydrolysis of 4-methylumbelliferyl palmitate (MUP) by full-length LCAT; made in house; host or cells: HEK293F (transient transfection, secreted)
# T1 sequence (P04180 25-440 Y75S): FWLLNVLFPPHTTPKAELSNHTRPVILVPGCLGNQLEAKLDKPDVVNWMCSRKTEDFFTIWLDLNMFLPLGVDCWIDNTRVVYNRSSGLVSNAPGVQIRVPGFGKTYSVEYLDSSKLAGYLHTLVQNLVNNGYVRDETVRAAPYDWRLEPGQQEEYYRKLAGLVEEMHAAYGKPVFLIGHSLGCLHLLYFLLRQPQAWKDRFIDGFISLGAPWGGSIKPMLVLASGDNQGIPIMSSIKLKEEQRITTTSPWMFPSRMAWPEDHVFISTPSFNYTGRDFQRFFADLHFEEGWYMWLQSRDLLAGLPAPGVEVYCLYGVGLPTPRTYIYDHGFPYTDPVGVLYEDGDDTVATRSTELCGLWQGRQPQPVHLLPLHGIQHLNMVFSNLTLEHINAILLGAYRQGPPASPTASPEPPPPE
# Protocol: (§1) The lipase activity of LCAT was measured using MUP as a substrate. The assay was performed at room temperature in 0.1 M sodium phosphate buffer, pH 7.4 containing 0.01% Triton X-100. 4 μL of LCAT (6 nM final concentration) were dispensed into a 1536-well Greiner solid black plate. The same volume of assay buffer was dispensed into column 1 and 2 for a no-enzyme control. […] After 15 min incubation, 2 μL MUP (16 μM final concentration) was added to initiate the reaction. The hydrolysis of MUP was monitored using a ViewLux plate reader (excitation 380 nm/emission 450 nm) for 20 min. The fluorescence signal was normalized against no-activator and no-enzyme control after subtraction of background signal (t = 0 min). To plot percent activation, in each assay 100% was set at the rate of LCAT or LCAT variant without compound. The resulting data were fitted to a sigmoidal dose response curve.
# [2] = target: T2, LCAT Y51S/G71I (Homo sapiens, UniProt P04180, G95I/Y75S); assay: MUP hydrolysis (esterase) assay; assay type: biochemical; settings: compound titrated from 0.04 to 9.5 μM
# T2 construct: hydrolysis of 4-methylumbelliferyl palmitate (MUP) by full-length LCAT; made in house; host or cells: HEK293F (transient transfection, secreted)
# T2 sequence (P04180 25-440 Y75S/G95I): T1 sequence (P04180 25-440 Y75S) with G71I
# Protocol: as §1
# [3] = target: T3, WT LCAT (Homo sapiens, UniProt P04180); assay: Differential scanning fluorimetry; assay type: binding; design: hydrolysis of 4-methylumbelliferyl palmitate (MUP) by full-length LCAT; made in house; host or cells: HEK293F (transient transfection, secreted); settings: for Thermal stabilization of WT LCAT (DSF): compound at 10 μM; for Thermal stabilization (DSF): WT LCAT
# T3 sequence (P04180 25-440): T1 sequence (P04180 25-440 Y75S) with S51Y
# Protocol: (§2) Tm values were determined using an Applied Biosystems QuantStudio 7 Flex qPCR machine with two replicates performed at least in triplicate. LCAT at 0.05 mg mL^−1 was diluted into reaction buffer containing 5X Sypro Orange in a final volume of 10 μL in 384-well PCR plates. DMSO or compound 1 was added so that all reactions contained 3% DMSO. The reactions were run from 25–95 °C with a ramp rate of 0.03 °C s^−1. Tm values were determined as the derivative using Protein Thermal Shift software. Significance was determined using a one-way analysis of variance followed by Tukey’s multiple comparisons post-test in GraphPad Prism.
# [4] = target: T4, ∆N∆C-IDFP LCAT (Homo sapiens, UniProt P04180); assay: Differential scanning fluorimetry; assay type: binding
# T4 construct: ∆N∆C-LCAT (residues 21–397), a truncation variant that lacks the dynamic N- and C-termini; made in house; host or cells: HEK293F
# T4 sequence (P04180 45-421): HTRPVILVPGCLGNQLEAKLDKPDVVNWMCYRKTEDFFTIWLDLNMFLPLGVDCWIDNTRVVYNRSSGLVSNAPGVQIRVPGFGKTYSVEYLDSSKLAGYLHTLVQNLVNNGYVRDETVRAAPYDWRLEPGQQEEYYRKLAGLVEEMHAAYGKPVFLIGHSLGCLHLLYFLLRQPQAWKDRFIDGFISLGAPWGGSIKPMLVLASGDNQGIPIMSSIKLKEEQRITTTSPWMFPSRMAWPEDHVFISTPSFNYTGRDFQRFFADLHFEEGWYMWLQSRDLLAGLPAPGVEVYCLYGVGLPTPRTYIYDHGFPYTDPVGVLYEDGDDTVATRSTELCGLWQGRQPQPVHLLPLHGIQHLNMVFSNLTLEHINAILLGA
# Protocol: as §2
# [5] = target: T5, ∆N∆C-LCAT (Homo sapiens, UniProt P04180); assay: Differential scanning fluorimetry; assay type: binding; settings: for Thermal stabilization (DSF): ∆N∆C LCAT
# T5 construct: ∆N∆C-LCAT (residues 21–397), a truncation variant that lacks the dynamic N- and C-termini; made in house; host or cells: HEK293F
# T5 sequence (P04180 45-421): T4 sequence (P04180 45-421)
# Protocol: as §2
# [6] = Y51S, compound titrated from 0.04 to 9.5 μM
Compound,"EC50 [1, 6] [nM]","Fold activation, MUP esterase assay [1, 6]",EC50 [2] [µM],"Fold activation, MUP esterase assay [2]","MUP assay EC50 [1, 6]",MUP assay EC50 [2],Thermal stabilization (DSF) [4],Thermal stabilization (DSF) [5],Thermal stabilization (DSF) [3],MUP EC50 of Y51S relative to WT ([1]; fold higher than WT) [fold],"∆Tm of ∆N∆C-LCAT ([5]; compound 1 and IDFP combined, additive effect)",Thermal stabilization of WT LCAT (DSF) [3]
"O=c1cc(C(F)(F)F)c2c(ncn2C2CCN(c3cnc(C(F)(F)F)cn3)CC2)[nH]1 [compound 8, 7-(trifluoromethyl)−1-(1-(5-(trifluoromethyl)pyrazin-2-yl)piperidin-4-yl)−1H-imidazo[4,5-b]pyridin-5(4H)-one]",> 10000,2.8 ± 0.6 fold,> 10,1.1 ± 0.07 fold,,,,,,,,do not stabilize; also recorded: could not thermal stabilize
"O=C1CC(O)(C(F)(F)F)c2c(ncn2C2CCNCC2)N1 (centres unmarked) [compound 6, 7-Hydroxy-1-(piperidin-4-yl)−7-(trifluoromethyl)−6,7-dihydro-1H-imidazo[4,5-b]pyridin-5(4H)-one]",,no effect,,no effect,no effect,no effect,,,,,,do not stabilize; also recorded: could not thermal stabilize
"O=C1CC(O)(C(F)(F)F)c2c(ncn2C2CCN(c3cnc(C(F)(F)F)cn3)CC2)N1 (centres unmarked) [compound 3, 7-Hydroxy-7-(trifluoromethyl)−1-(1-(5-(trifluoromethyl)pyrazin-2-yl)piperidin-4-yl)−6,7-dihydro-1H-imidazo[4,5-b]pyridin-5(4H)-one]",1600 ± 400,1.9 ± 0.2 fold,,1.1 ± 0.06 fold,,no effect,stabilize,stabilize,stabilize,,,

# Continued, in another order:
"EC50 [1, 6] [nM]","Fold activation, MUP esterase assay [1, 6]",EC50 [2] [µM],"Fold activation, MUP esterase assay [2]","MUP assay EC50 [1, 6]",MUP assay EC50 [2],Thermal stabilization (DSF) [4],Thermal stabilization (DSF) [5],Thermal stabilization (DSF) [3],MUP EC50 of Y51S relative to WT ([1]; fold higher than WT) [fold],"∆Tm of ∆N∆C-LCAT ([5]; compound 1 and IDFP combined, additive effect)",Compound,Thermal stabilization of WT LCAT (DSF) [3]
> 10000,1.1 ± 0.07 fold,,0.97 ± 0.003 fold,,no effect,,,,,,"O=C1CC(O)(C(F)(F)F)c2c(C3CCN(c4cnc(C(F)(F)F)cn4)CC3)noc2N1 (centres unmarked) [compound 9, 4-hydroxy-4-(trifluoromethyl)−3-(1-(5-(trifluoromethyl)pyrazin-2-yl)piperidin-4-yl)−4,5-dihydroisoxazolo[5,4-b]pyridin-6(7H)-one]",do not stabilize; also recorded: could not thermal stabilize
740 ± 200,1.8 ± 0.1 fold,,0.99 ± 0.03 fold,,no effect,stabilize,stabilize,stabilize,,,"O=C1CC(O)(C(F)(F)F)c2c(C3CCN(c4cnc(C(F)(F)F)cn4)CC3)n[nH]c2N1 (centres unmarked) [compound 2, 4-Hydroxy-4-(trifluoromethyl)−3-(1-(5-(trifluoromethyl)pyrazin-2-yl)piperidin-4-yl)−4,5-dihydro-1H-pyrazolo[3,4-b]pyridin-6(7H)-one]",
590 ± 30,1.9 ± 0.2 fold,,1.3 ± 0.3 fold,,no response; also recorded: no effect,stabilize,stabilize,stabilize,4,12.7 ˚C,"N#Cc1cnc(N2CCC(c3n[nH]c4c3C(O)(C(F)(F)F)CC(=O)N4)CC2)cc1C(F)(F)F (centres unmarked) [compound 1, 6-(4-(4-Hydroxy-6-oxo-4-(trifluoromethyl)−4,5,6,7-tetrahydro-1H-pyrazolo[3,4-b]pyridin-3-yl)piperidin-1-yl)−4-(trifluoromethyl)nicotinonitrile]",
